Earlier results in US5096924A, “Anticancer antibiotic MI43-37F11 substance” (501 Azidan Hojin Biseibutsu Kagaku Kenkyu Kai, priority 1989, dated 1992).

System: cyclic adenosine monophosphate (CAMP) phosphodiesterase
Details: disclosed in Japanese Kokai No. 71076/78; cited from earlier work

SMILES: COc1cc2cc(CO)oc(=O)c2c(O)c1OC [3-hydroxymethyl-6,7-dimethoxy-8-hydroxyisocumarin]
- inhibitory activity to cyclic adenosine monophosphate (CAMP) phosphodiesterase: inhibitory activity

SMILES: COc1c(O)cc2cc(CO)oc(=O)c2c1O [3-hydroxymethyl-6,8-dihydroxy-7-methoxyisocumarin]
- inhibitory activity to cyclic adenosine monophosphate (CAMP) phosphodiesterase: inhibitory activity
